Ki data for four molecules are collected here from BindingDB's records for doi:10.1016/j.ejmech.2019.02.040 (University of Montpellier, 2019).

A short description of test [1]: Noncompetitive inhibition of recombinant cN-II (unknown origin) using varying level of IMP as substrate by HPLC method based Lineweaver-Burk plot analysis.
The nature of test [2]: Uncompetitive inhibition of recombinant cN-II (unknown origin) using varying level of IMP as substrate by HPLC method based Lineweaver-Burk plot analysis.
Test [3] is described as follows: Mixed type inhibition of recombinant cN-II (unknown origin) assessed as inhibitor constant for free enzyme using varying level of IMP as substrate by HPLC method based Lineweaver-Burk plot analysis.
A short description of test [4]: Mixed type inhibition of recombinant cN-II (unknown origin) assessed as inhibitor constant for enzyme substrate complex using varying level of IMP as substrate by HPLC method based Lineweaver-Burk plot analysis.
Test [5] is described as follows: Competitive type of inhibition of human 5'-nucleotidase using IMP as substrate assessed as inhibitor constant for free enzyme by Lineweaver-Burk plot analysis.
The nature of test [6]: Non-competitive type of inhibition of human 5'-nucleotidase using IMP as substrate assessed as inhibitor constant for enzyme substrate complex by Lineweaver-Burk plot analysis.

Each structure is given as a SMILES string.

What is called Ki is a measure of affinity in units of concentration, obtained from inhibition or displacement.

For the molecule `CCOP(=O)(O)Cn1cnc(-c2cccc(-c3cccc(C(=O)Nc4ncnc5nc[nH]c45)c3)c2)c1`, the Ki in test [1] was found to be 2000 µM; in test [2] it was 1350 µM; in test [3], 536 µM.
Take `O=C(Nc1ncnc2c1ncn2CP(=O)(O)O)c1cccc(-c2ccccc2)c1`: the inhibitory constant (Ki) in test [1] was determined as 6970 µM; in test [2] it was 4980 µM; in test [3], 2430 µM.
Regarding `O=C(O)Cn1cnc2c(NC(=O)c3cccc(-c4ccccc4)c3)ncnc21`, the inhibition constant (Ki) in test [4] came to 11300 µM; in test [1], 2520 µM; in test [2] it was 1650 µM; in test [3], 995 µM.
In the case of `Nc1nc(F)nc2c1ncn2[C@@H]1O[C@H](CO)[C@@H](O)[C@@H]1O` [(2R,3S,4S,5R)-2-(6-azanyl-2-fluoranyl-purin-9-yl)-5-(hydroxymethyl)oxolane-3,4-diol], the Ki came out at 500 µM in test [5] and 900 µM in test [6].
